# Where two headings read alike, the source gives them in different places.
# Tests used:
# [1] = target: T1, human JAK2 (Homo sapiens, UniProt O60674); test: JAK2 inhibition assay (polyGT substrate / Ulight-JAK1 peptide); assay type: biochemical; details: recombinant human JAK2 catalytic domain; polyGT or Ulight-JAK1 peptide assay
# T1 construct: catalytic domain (amino acids 808-1132; catalog number PV4210); GST; purchased Invitrogen PV4210
# In short: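 Two JAK2 formats: a ^33P-ATP polyGT assay (1 μM cold ATP, 90 min, 30° C., cpm read-out) and a Ulight-JAK1 peptide assay read by Europium-anti-phosphotyrosine fluorescence after 60 min at room temperature.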
# [2] = target: T2, human JAK1 (Homo sapiens, UniProt P23458); test: JAK1 inhibition assay (polyGT substrate / Ulight-JAK1 peptide); assay type: biochemical; details: recombinant human JAK1 catalytic domain; polyGT or Ulight-JAK1 peptide assay
# T2 construct: catalytic domain, amino acids 866-1154; catalog number PV4774; purchased Invitrogen PV4774
# T2 sequence (P23458 866-1154): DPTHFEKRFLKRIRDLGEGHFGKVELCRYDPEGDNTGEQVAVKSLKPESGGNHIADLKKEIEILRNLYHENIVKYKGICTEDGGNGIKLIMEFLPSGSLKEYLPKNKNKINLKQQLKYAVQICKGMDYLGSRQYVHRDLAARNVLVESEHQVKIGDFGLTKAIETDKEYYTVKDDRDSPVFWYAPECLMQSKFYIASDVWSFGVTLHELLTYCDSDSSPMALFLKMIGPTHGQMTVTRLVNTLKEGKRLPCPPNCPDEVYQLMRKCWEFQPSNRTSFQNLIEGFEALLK
# In short: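 Signal scaled between vehicle and 10 μM staurosporine. Radiometric polyGT reactions ran 45 min at 30 °C, counted after phosphoric-acid stop. Ulight peptide reactions ran 60 min at room temperature, fluorescence read after adding Eu-PT66 detection mix with EDTA.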
# [3] = test system: pSTAT1(2)-luciferase reporter in HeLa cells triggered with human OSM; test: JAK-STAT signalling assay; assay type: cell-based; details: read-out: JAK-STAT IC50
# In short: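 Compound added 60 min before 33 ng/mL (final) human OSM; after overnight stimulation at 37 °C, luciferase signal from a transiently transfected pSTAT1(2) reporter in HeLa cells was read, with LacZ as internal control. EC50 derived from percent-inhibition dose-response curves.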
# [4] = Homo sapiens, HeLa, HeLa cells, pSTAT1(2)-luciferase reporter, human OSM 33 ng/mL
# [5] = HeLa cells, pSTAT1(2)-luciferase reporter, human OSM 33 ng/mL
# T1 sequence (O60674 808-1132): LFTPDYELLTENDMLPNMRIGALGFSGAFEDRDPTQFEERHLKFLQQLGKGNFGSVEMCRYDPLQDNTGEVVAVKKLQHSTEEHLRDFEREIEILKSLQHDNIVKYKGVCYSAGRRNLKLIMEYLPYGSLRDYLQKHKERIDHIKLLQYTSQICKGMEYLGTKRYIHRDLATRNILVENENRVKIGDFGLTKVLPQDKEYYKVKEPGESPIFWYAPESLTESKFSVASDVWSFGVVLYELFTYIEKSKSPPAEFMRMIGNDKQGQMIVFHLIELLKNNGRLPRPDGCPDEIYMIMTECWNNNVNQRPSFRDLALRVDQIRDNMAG
Structure (SMILES),IC50 [1],IC50 [2],"IC50 [3, 4]","IC50 [3, 5]","IC50 ([3]; Homo sapiens, HeLa)"
"Cc1cc(O)ccc1N(C)c1cc2c(cn1)ncn2C [Compound 38, 3-Methyl-4-(methyl(1-methyl-1H-imidazo[4,5-c]pyridin-6-yl)amino)phenol]",> 1000 nM,0.01 to 100 nM,> 1000 nM,,
"Cc1cc(-c2cncnc2)ccc1N(C)c1cc2c(cn1)ncn2C [Compound 72, N,1-dimethyl-N-(2-methyl-4-(pyrimidin-5-yl)phenyl)-1H-imidazo[4,5-c]pyridin-6-amine]",> 1000 nM,101 to 500 nM,> 1000 nM,,
"CCc1cc(F)ccc1N(C)c1cc2c(cn1)ncn2C [Compound 28, N-(2-Ethyl-4-fluorophenyl)-N,1-dimethyl-1H-imidazo[4,5-c]pyridin-6-amine]",501 to 1000 nM,0.01 to 100 nM,> 1000 nM,,
"CCc1cc(Cn2ccnc2)ccc1N(C)c1cc2c(cn1)ncn2C [Compound 111, N-(4-((1H-imidazol-1-yl)methyl)-2-ethylphenyl)-N,1-dimethyl-1H-imidazo[4,5-c]pyridin-6-amine]",101 to 500 nM,0.01 to 100 nM,501 to 1000 nM,,
"COc1cc(N2CCOCC2)ncc1N(C)c1cc2c(cn1)ncn2C [Compound 313, (4-Methoxy-6-morpholin-4-yl-pyridin-3-yl)-methyl-(1-methyl-1H-imidazo[4,5-c]pyridine-6-yl)-amine]",101 to 500 nM,0.01 to 100 nM,,> 1000 nM,
CCc1cc(-c2ccc(CNC(=O)OC(C)(C)C)s2)ncc1N(C)c1cc2c(cn1)ncn2C [Compound 302],101 to 500 nM,0.01 to 100 nM,,> 1000 nM,
"CCc1ccccc1N(CC)c1cc2c(cn1)ncn2C [Compound 34, N-Ethyl-N-(2-ethylphenyl)-1-methyl-1H-imidazo[4,5-c]pyridin-6-amine]",501 to 1000 nM,0.01 to 100 nM,,,> 1000 nM
"Cc1ccc(OCC(C)C)cc1N(C)c1cc2c(cn1)ncn2C [Compound 63, N-(5-isobutoxy-2-methylphenyl)-N,1-dimethyl-1H-imidazo[4,5-c]pyridin-6-amine]",> 1000 nM,101 to 500 nM,> 1000 nM,,
"CCc1cc(C(C)(C)O)ccc1N(C)c1cc2c(cn1)ncn2C [Compound 103, 2-(3-Ethyl-4-(methyl(1-methyl-1H-imidazo[4,5-c]pyridin-6-yl)amino)phenyl)propan-2-ol]",101 to 500 nM,0.01 to 100 nM,> 1000 nM,,
"CCc1cc(C2CN(C(=O)C(F)F)C2)ncc1N(C)c1cc2c(cn1)ncn2C [Compound 333, 1-(3-{4-Ethyl-5-[methyl-(1-methyl-1H-imidazo[4,5-c]pyridin-6-yl)-amino]-pyridin-2-yl}-azetidin-1-yl)-2,2-difluoro-ethanone]",101 to 500 nM,0.01 to 100 nM,,> 1000 nM,
"CCc1cc(C(=O)OC)ccc1N(C)c1cc2c(cn1)ncn2C [Compound 80, Methyl 3-ethyl-4-(methyl(1-methyl-1H-imidazo[4,5-c]pyridin-6-yl)amino)benzoate]",101 to 500 nM,0.01 to 100 nM,> 1000 nM,,
"COc1ccc(S(=O)(=O)N2CCCCC2)cc1N(C)c1cc2c(cn1)ncn2C [Compound 314, [2-Methoxy-5-(piperidine-1-sulfonyl)-phenyl]-methyl-(1-methyl-1H-imidazo[4,5-d]pyridin-6-yl)-amine]",> 1000 nM,> 1000 nM,,> 1000 nM,
"CCc1ccc(C(=O)NC(C)(C)C)cc1N(C)c1cc2c(cn1)ncn2C [Compound 123, N-tert-butyl-4-ethyl-3-(methyl(1-methyl-1H-imidazo[4,5-c]pyridin-6-yl)amino)benzamide]",> 1000 nM,0.01 to 100 nM,> 1000 nM,,
"CCc1cc(C(=O)NCCC#N)ccc1N(C)c1cc2c(cn1)ncn2C [Compound 86, N-(2-Cyanoethyl)-3-ethyl-4-(methyl(1-methyl-1H-imidazo[4,5-c]pyridin-6-yl)amino)benzamide]",501 to 1000 nM,0.01 to 100 nM,> 1000 nM,,
"CCc1cc(C2CN(S(=O)(=O)C(C)C)C2)ncc1N(C)c1cc2c(cn1)ncn2C [Compound 330, {4-Ethyl-6-[1-(propane-2-sulfonyl)-azetidin-3-yl]-pyridin-3-yl}-methyl-(1-methyl-1H-imidazo[4,5-c]pyridin-6-yl)-amine]",101 to 500 nM,0.01 to 100 nM,,> 1000 nM,
"CCc1cc(C(=O)NCC#N)ccc1N(C)c1cc2c(cn1)ncn2C [Compound 120, N-(cyanomethyl)-3-ethyl-4-(methyl(1-methyl-1H-imidazo[4,5-c]pyridin-6-yl)amino)benzamide]",101 to 500 nM,0.01 to 100 nM,> 1000 nM,,
"Cc1ccc(Oc2ccc(C#N)nc2)cc1N(C)c1cc2c(cn1)ncn2C [Compound 91, 5-(4-methyl-3-(methyl(1-methyl-1H-imidazo[4,5-c]pyridin-6-yl)amino)phenoxy)picolino-nitrile]",> 1000 nM,0.01 to 100 nM,,> 1000 nM,
"CN(c1ccc(O)cc1)c1cc2c(cn1)ncn2C [Compound 17, 4-(methyl(1-methyl-1H-imidazo[4,5-c]pyridin-6-yl)amino)phenol]",501 to 1000 nM,0.01 to 100 nM,> 1000 nM,,
"CCc1cc(C(=O)NCCN(C)C)ccc1N(C)c1cc2c(cn1)ncn2C [Compound 119, N-(2-(dimethylamino)ethyl)-3-ethyl-4-(methyl(1-methyl-1H-imidazo[4,5-c]pyridin-6-yl)amino)benzamide]",> 1000 nM,0.01 to 100 nM,> 1000 nM,,
"Cc1ccc(OCCCC#N)cc1N(C)c1cc2c(cn1)ncn2C [Compound 60, 4-(4-methyl-3-(methyl(1-methyl-1H-imidazo[4,5-c]pyridin-6-yl)amino)phenoxy)butane nitrile]",> 1000 nM,0.01 to 100 nM,> 1000 nM,,
"Cc1cc(-c2cnn(C)c2)ccc1N(C)c1cc2c(cn1)ncn2C [Compound 73, N,1-dimethyl-N-(2-methyl-4-(1-methyl-1H-pyrazol-4-yl)phenyl)-1H-imidazo[4,5-c]pyridin-6-amine]",501 to 1000 nM,0.01 to 100 nM,,> 1000 nM,

# More lines, main results first:
IC50 [1],IC50 [2],"IC50 [3, 4]","IC50 [3, 5]",Structure (SMILES),"IC50 ([3]; Homo sapiens, HeLa)"
0.01 to 100 nM,0.01 to 100 nM,501 to 1000 nM,,"CCc1cc(CNC(=O)C(F)F)c(F)cc1N(C)c1cc2c(cn1)ncn2C [Compound 326, N-{5-Ethyl-2-fluoro-4-[methyl-(1-methyl-M-imidazo[4,5-c]pyridin-6-yl)-amino]-benzyl}-2,2-difluoro-acetamide]",
101 to 500 nM,0.01 to 100 nM,> 1000 nM,,"CN(c1ccc(CC#N)cc1)c1cc2c(cn1)ncn2C [Compound 26, 2-(4-(Methyl(1-methyl-1H-imidazo[4,5-c]pyridin-6-yl)amino)phenyl)acetonitrile]",
101 to 500 nM,0.01 to 100 nM,> 1000 nM,,"CCc1cc(C#N)cc(F)c1N(C)c1cc2c(cn1)ncn2C [Compound 322, 3-Ethyl-5-fluoro-4-[methyl-(1-methyl-M-imidazo[4,5-c]pyridin-6-yl)-amino]-benzonitrile]",
0.01 to 100 nM,0.01 to 100 nM,,1 to 500 nM,"CCc1cc(-c2ccc(Cl)s2)ncc1N(C)c1cc2c(cn1)ncn2C [Compound 304, [6-(5-Chloro-thiophen-2-yl)-4-ethyl-pyridin-3-yl]-methyl-(1-methyl-1H-imidazo[4,5-c]pyridin-6-yl)-amine]",
0.01 to 100 nM,0.01 to 100 nM,,> 1000 nM,"CCc1cc(C2CN(C(=O)C(F)(F)F)C2)ncc1N(C)c1cc2c(cn1)ncn2C [Compound 334, 1-(3-{4-Ethyl-5-[methyl-(1-methyl-1H-imidazo[4,5-c]pyridin-6-yl)-amino]-pyridin-2-yl}-azetidin-1-yl)-2,2,2-trifluoro-ethanone]",
0.01 to 100 nM,0.01 to 100 nM,1 to 500 nM,,"CCc1cc(-c2cnn(C)c2)ccc1N(C)c1cc2c(cn1)ncn2C [Compound 93, N-(2-Ethyl-4-(1-methyl-1H-pyrazol-4-yl)phenyl)-N,1-dimethyl-1H-imidazo[4,5-d]pyridin-6-amine]",
0.01 to 100 nM,0.01 to 100 nM,1 to 500 nM,,"CCc1cc(CNS(=O)(=O)C(F)F)cc(F)c1N(C)c1cc2c(cn1)ncn2C [Compound 324, N-{3-Ethyl-5-fluoro-4-[methyl-(1-methyl-1H-imidazo[4,5-c]pyridin-6-yl)-amino]-benzyl}-C,C-difluoro-methanesulfonamide]",
0.01 to 100 nM,0.01 to 100 nM,501 to 1000 nM,,"CCc1cc(O)ccc1N(C)c1cc2c(cn1)ncn2C [Compound 107, 3-ethyl-4-(methyl(1-methyl-1H-imidazo[4,5-c]pyridin-6-yl)amino)phenol]",
0.01 to 100 nM,0.01 to 100 nM,1 to 500 nM,,"CCc1cc(CNS(=O)(=O)C(F)F)c(F)cc1N(C)c1cc2c(cn1)ncn2C [Compound 327, N-{5-Ethyl-2-fluoro-4-[methyl-(1-methyl-M-imidazo[4,5-c]pyridin-6-yl)-amino]-benzyl}-C,C-difluoro-methanesulfonamide]",
0.01 to 100 nM,0.01 to 100 nM,> 1000 nM,,CN(c1cc2c(cn1)ncn2C)c1ccc(CNC(=O)C(F)F)cc1F [Compound 320],

# Reference: patent publication US20130217664A1, “NOVEL COMPOUNDS USEFUL FOR THE TREATMENT OF DEGENERATIVE AND INFLAMMATORY DISEASES” (priority 2012, published 2013)
